The values that follow come from patent US4345069A, “Deformyltylosin derivatives” (Toyo Jozo Kabushiki Kaisha, priority 1979, dated 1982).

In brackets after ≈: the same amount, converted by molar mass. Like-named read-outs stand apart in the source and are kept apart here.

Common to all, as to experiment: Minimum inhibitory concentration
What all share (assay type): cell-based

The test system of experiment [1] is Streptococcus pyogenes N.Y.5.
Experiment [2] has as its system Staphylococcus aureus MS353 C36. As to conditions: MS353C36, read-out: Minimum Inhibitory Concentration. The text has this:
(§1) Minimum Inhibitory Concentration (μg/ml)
*erythromycin resistant strain

Experiment [3] relates to Staphylococcus aureus MS353.
Experiment [4] deals with Staphylococcus aureus ATCC 6538p. As to conditions: ATCC6538P.
For experiment [5], the system named is Staphylococcus aureus 0126.
Description: as §1
**erythromycin and oreandomycin resistant strain.

The mark [6] stands for this setting: Staphylococcus aureus, 0126, read-out: Minimum Inhibitory Concentration.
The mark [7] stands for this setting: Staphylococcus aureus 0126, erythromycin and oreandomycin resistant strain, read-out: Minimum Inhibitory Concentration.

In the case of `CCC1CC(C)C(=O)C=CC(C)=CC(COC2OC(C)C(O)C(OC)C2OC)C(CC)OC(=O)CC(O)C(C)C1OC1OC(C)C(O)C(N(C)C)C1O` (stereo not drawn) [20-deoxo-4'-demycarosyltylosin], the MIC in experiment [1] came to 0.2 µg/mL (≈ 0.264 µM); in experiment [2], 0.1 µg/mL (≈ 0.132 µM); in experiment [3], 0.2 µg/mL (≈ 0.264 µM); in experiment [4] it was 0.2 µg/mL (≈ 0.264 µM).

Turning to `CC[C@H]1OC(=O)[C@H](C)[C@@H](O[C@H]2C[C@@](C)(OC)[C@@H](O)[C@H](C)O2)[C@H](C)[C@@H](O[C@@H]2O[C@H](C)C[C@H](N(C)C)[C@H]2O)[C@](C)(O)C[C@@H](C)C(=O)[C@H](C)[C@@H](O)[C@]1(C)O` [erythromycin, reference compound], the MIC was at most 0.05 µg/mL in experiment [1]; over 100 µg/mL in experiment [2]; 0.2 µg/mL (≈ 0.273 µM) in experiment [3]; 0.2 µg/mL (≈ 0.273 µM) in experiment [4]; over 100 µg/mL in experiment [5] (setting [6]).

In the case of `CCC1OC(=O)CC(O)C(C)C(OC2OC(C)C(OC3CC(C)(O)C(O)C(C)O3)C(N(C)C)C2O)C(C)CC(C)C(=O)C=CC(C)=CC1COC1OC(C)C(O)C(OC)C1OC` (stereo not drawn) [19-deformyltylosin], the MIC in experiment [1] amounted to 1.6 µg/mL (≈ 1.8 µM); in experiment [2], 0.8 µg/mL (≈ 0.901 µM); in experiment [3] it was 1.6 µg/mL (≈ 1.8 µM); in experiment [4], 1.6 µg/mL (≈ 1.8 µM).

For the compound `CCC1OC(=O)C=CC(C)C(OC2OC(C)C(O)C(N(C)C)C2O)C(C)CC(C)C(=O)C=CC(C)=CC1COC1OC(C)C(O)C(OC)C1OC` (stereo not drawn) [19-deformyl-2,3-didehydro-3-dehydroxy-4'-demycarosyltylosin], the MIC is 0.2 µg/mL (≈ 0.276 µM) in experiment [1]; 0.4 µg/mL (≈ 0.551 µM) in experiment [2]; 0.2 µg/mL (≈ 0.276 µM) in experiment [3]; 0.2 µg/mL (≈ 0.276 µM) in experiment [4]; 1.6 µg/mL (≈ 2.2 µM) in experiment [5] (setting [7]).

Consider `CC[C@H]1OC(=O)C[C@@H](O)[C@H](C)[C@@H](O[C@@H]2O[C@H](C)[C@@H](O[C@H]3C[C@@](C)(O)[C@@H](O)[C@H](C)O3)[C@H](N(C)C)[C@H]2O)[C@@H](CC=O)C[C@@H](C)C(=O)/C=C/C(C)=C/[C@@H]1CO[C@@H]1O[C@H](C)[C@@H](O)[C@@H](OC)[C@H]1OC` [tylosin], for which the MIC in experiment [1] was determined as 0.4 µg/mL (≈ 0.437 µM); in experiment [2], 1.6 µg/mL (≈ 1.75 µM); in experiment [3], 3.1 µg/mL (≈ 3.38 µM); in experiment [4], 1.6 µg/mL (≈ 1.75 µM); in experiment [5] (setting [6]) it was 1.6 µg/mL (≈ 1.75 µM).

Turning to `CCC1OC(=O)CC(OC(=O)Cc2ccccc2)C(C)C(OC2OC(C)C(O)C(N(C)C)C2O)C(C)CC(C)C(=O)C=CC(C)=CC1COC1OC(C)C(O)C(OC)C1OC` (stereo not drawn) [19-deformyl-4'-demycarosyl-3-phenylacetyltylosin], the MIC in experiment [1] was at most 0.05 µg/mL; in experiment [2] it was 0.1 µg/mL (≈ 0.116 µM); in experiment [3], 0.2 µg/mL (≈ 0.232 µM); in experiment [4] it was 0.2 µg/mL (≈ 0.232 µM); in experiment [5] (setting [6]) it was 0.4 µg/mL (≈ 0.464 µM).

Consider `CCC1OC(=O)CC(O)C(C)C(OC2OC(C)C(O)C(N(C)C)C2O)C(C)CC(C)C(=O)C=CC(C)=CC1COC1OC(C)C(O)C(OC)C1OC` (stereo not drawn) [19-deformyl-4'-demycarosyltylosin], for which the MIC in experiment [1] came out at 0.1 µg/mL (≈ 0.134 µM); in experiment [2], 0.2 µg/mL (≈ 0.269 µM); in experiment [3], 0.2 µg/mL (≈ 0.269 µM); in experiment [4] it was 0.2 µg/mL (≈ 0.269 µM); in experiment [5] (setting [7]), 0.8 µg/mL (≈ 1.08 µM).
